Source: patent publication US9221809B2 (MERCK SHARP & DOHME CORP., priority 2011, dated 2015)
Structures can show the parent of a compound that is named as a salt.

molecular target: IRAK4 (Homo sapiens (Human), UniProt Q9NWZ3); test: IRAK4 kinase activity, IMAP fluorescence polarization assay; assay type: biochemical; conditions: 100 μM ATP, 0.5 nM GST tagged IRAK4; read-out: IRAK4 IC50
How it was run: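 Fluorescence polarization (IMAP nanoparticle binding of phosphopeptide) reports activity after a 30 min, 25 °C reaction. Conditions: 100 μM ATP, 0.5 nM GST-IRAK4, 100 nM fluorescent peptide, 10 mM Tris pH 7.2, 1 mM MgCl2, 1 mM DTT, 0.01% Tween 20.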

Sequence of IRAK4 (Q9NWZ3 whole entry): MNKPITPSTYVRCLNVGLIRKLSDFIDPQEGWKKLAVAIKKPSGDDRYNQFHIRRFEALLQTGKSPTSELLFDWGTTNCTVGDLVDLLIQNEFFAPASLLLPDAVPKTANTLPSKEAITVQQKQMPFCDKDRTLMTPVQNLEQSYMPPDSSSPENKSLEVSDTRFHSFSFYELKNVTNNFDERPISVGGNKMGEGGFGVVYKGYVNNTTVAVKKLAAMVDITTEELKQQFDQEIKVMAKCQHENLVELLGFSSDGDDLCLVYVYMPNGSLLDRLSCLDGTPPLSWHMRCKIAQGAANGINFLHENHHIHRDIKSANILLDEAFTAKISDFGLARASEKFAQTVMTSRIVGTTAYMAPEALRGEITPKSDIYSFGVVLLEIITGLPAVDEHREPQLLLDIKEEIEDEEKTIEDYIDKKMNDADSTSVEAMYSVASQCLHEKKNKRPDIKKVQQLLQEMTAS

SMILES | IC50 [nM]
O=c1[nH]c(NC2CCC2)nc(N[C@@H]2C[C@H](CO)[C@@H](O)[C@H]2O)c1-c1nccs1 [Example 22, 2-(Cyclobutylamino)-6-((1R,2S,3R,4R)-2,3-dihydroxy-4-(hydroxymethyl)cyclopentylamino)-5-(thiazol-2-yl)pyrimidin-4(3H)-one.HCl] | 1110
O=c1[nH]c(N2CCCCC2)nc(N[C@@H]2C[C@H](CO)[C@@H](O)[C@H]2O)c1-c1ccc2ccccc2n1 [Example 19, 6-((1R,2S,3R,4R)-2,3-Dihydroxy-4-(hydroxymethyl)cyclopentylamino)-2-(piperidin-1-yl)-5-(quinolin-2-yl)pyrimidin-4(3H)-one.HCl] | 23
COCCCNc1nc(N[C@@H]2C[C@H](CO)[C@@H](O)[C@H]2O)c(-c2nc3ccccc3s2)c(=O)[nH]1 [Example 40, 5-(Benzo[d]thiazol-2-yl)-6-(((1R,2S,3R,4R)-2,3-dihydroxy-4-(hydroxymethyl)cyclopentyl)amino)-2-((3-methoxypropyl)amino)pyrimidin-4(3H)-one HCl] | 60
O=c1[nH]c(NC2CCC2)nc(N[C@@H]2C[C@H](CO)[C@@H](O)[C@H]2O)c1-c1ccccn1 [Example 21, 2-(Cyclobutylamino)-6-((1R,2S,3R,4R)-2,3-dihydroxy-4-(hydroxymethyl)cyclopentylamino)-5-(pyridin-2-yl)pyrimidin-4(3H)-one.HCl] | 590
O=c1[nH]c(N2CCOCC2)nc(N[C@@H]2CCCNC2)c1-c1nc2cc(Br)ccc2s1 [Example 345, 5-(5-bromo-1,3-benzothiazol-2-yl)-2-(morpholin-4-yl)-6-[[(3R)-piperidin-3-yl]amino]-3,4-dihydropyrimidin-4-one] | 19
CC(C)Nc1nc(N[C@@H]2C[C@H](CO)[C@@H](O)[C@H]2O)c(-c2nc3ccccc3s2)c(=O)[nH]1 [Example 5, 5-(Benzo[d]thiazol-2-yl)-6-((1R,2S,3R,4R)-2,3-dihydroxy-4-(hydroxymethyl)cyclopentylamino)-2-(isopropylamino)pyrimidin-4(3H)-one.HCl] | 151
O=c1[nH]c(NC2COC2)nc(N[C@@H]2C[C@H](CO)[C@@H](O)[C@H]2O)c1-c1nc2ccccc2s1 [Example 11, 5-(Benzo[d]thiazol-2-yl)-6-((1R,2S,3R,4R)-2,3-dihydroxy-4-(hydroxymethyl)cyclopentylamino)-2-(oxetan-3-ylamino)pyrimidin-4(3H)-one.HCl] | 892

same assay, conditions: 100 μM ATP; read-out: IC50

SMILES | IC50 [nM]
O=c1[nH]c(N2CCOCC2)nc(N[C@@H]2CCCNC2)c1-c1csc(-n2cccn2)n1 [Example 217, (R)-5-(2-(1H-pyrazol-1-yl)thiazol-4-yl)-2-morpholino-6-(piperidin-3-ylamino)pyrimidin-4(3H)-one] | 82
O=c1[nH]c(N2CCOCC2)nc(NCCNCCO)c1-c1ccc2ccccc2n1 [Example 273, 6-([2-[(2-hydroxyethyl)amino]ethyl]amino)-2-(morpholin-4-yl)-5-(quinolin-2-yl)-3,4-dihydropyrimidin-4-one] | 670
O=c1[nH]c(N2CCOCC2)nc(NC2CNC2)c1-c1ccc2ccccc2n1 [Example 275, 6-[(azetidin-3-yl)amino]-2-(morpholin-4-yl)-5-(quinolin-2-yl)-3,4-dihydropyrimidin-4-one] | 150
CC(=O)N1CCC2(CCN(c3nc(N[C@@H]4CCCNC4)c(-c4nc5ccccc5s4)c(=O)[nH]3)C2)C1 (stereo partly drawn) [Example 326, 2-[7-acetyl-2,7-diazaspiro[4.4]nonan-2-yl]-5-(1,3-benzothiazol-2-yl)-6-[[(3R)-piperidin-3-yl]amino]-3,4-dihydropyrimidin-4-one] | 13
O=c1[nH]c(N2CCOCC2)nc(NC2CCC(O)CC2)c1-c1nc2ccccc2s1 (centres unmarked) [Example 268, 5-(benzo[d]thiazol-2-yl)-6-(4-hydroxycyclo-hexylamino)-2-morpholinopyrimidin-4(3H)-one] | 620
O=c1[nH]c(N2CCN(c3ncccn3)CC2)nc(N[C@@H]2CCCNC2)c1-c1nc(-c2ccc(F)cc2)cs1 [Example 350, 5-[4-(4-fluorophenyl)-1,3-thiazol-2-yl]-6-[[(3R)-piperidin-3-yl]amino]-2-[4-(pyrimidin-2-yl)piperazin-1-yl]-3,4-dihydropyrimidin-4-one; trifluoroacetic acid] | 21
O=c1[nH]c(N2CCC3(CCN(Cc4ccccc4)C3)C2)nc(N[C@@H]2CCCNC2)c1-c1nc2ccccc2s1 (stereo partly drawn) [Example 327, 5-(1,3-benzothiazol-2-yl)-2-[7-benzyl-2,7-diazaspiro[4.4]nonan-2-yl]-6-[[(3R)-piperidin-3-yl]amino]-3,4-dihydropyrimidin-4-one; trifluoroacetic acid] | 27
O=c1[nH]c(C2CCN(C3CCCCC3)CC2)nc(N[C@@H]2CCCNC2)c1-c1nc2ccccc2s1 [Example 232, (R)-5-(1,3-benzothiazol-2-yl)-2-(1-cyclo-hexylpiperidin-4-yl)-6-[(piperidin-3-yl)amino]-3,4-dihydropyrimidin-4-one] | 450
CC(C)C[C@H](CO)Nc1nc(N2CCOCC2)[nH]c(=O)c1-c1nc2ccccc2s1 [Example 266, (R)-5-(benzo[d]thiazol-2-yl)-6-(1-hydroxy-4-methylpentan-2-ylamino)-2-morpholinopyrimidin-4(3H)-one] | 2500
O=c1[nH]c(N2CCOCC2)nc(N[C@H]2CNCC(F)(F)C2)c1-c1nc2ccccc2s1 [Example 212, (R)-5-(benzo[d]thiazol-2-yl)-6-((5,5-difluoropiperidin-3-yl)amino)-2-morpholinopyrimidin-4(3H)-one] | 792
O=c1[nH]c(C2CCN(C3CCOCC3)CC2)nc(N[C@@H]2CCCNC2)c1-c1nc2ccccc2s1 [Example 234, (R)-5-(benzo[d]thiazol-2-yl)-6-(piperidin-3-ylamino)-2-(1-(tetrahydro-2H-pyran-4-yl)piperidin-4-yl)pyrimidin-4(3H)-one] | 440
O=C1CCCN1c1cccc(-c2c(N[C@@H]3CCCNC3)nc(N3CCOCC3)[nH]c2=O)n1 [Example 216, (R)-2-morpholino-5-(6-(2-oxopyrrolidin-1-yl)pyridin-2-yl)-6-(piperidin-3-ylamino)pyrimidin-4(3H)-one] | 258
CC1(c2ccc(Cl)cc2)CN(c2nc(N[C@@H]3CCCNC3)c(-c3nc4ccccc4s3)c(=O)[nH]2)CCO1 (stereo partly drawn) [Example 319, 5-(benzo[d]thiazol-2-yl)-2-(2-(4-chlorophenyl)-2-methylmorpholino)-6-((R)-piperidin-3-ylamino)pyrimidin-4(3H)-one hydrochloride] | 2500
O=c1[nH]c(N2CCOCC2)nc(NCC2CCNCC2)c1-c1nc2ccccc2s1 [Example 271, 5-(1,3-benzothiazol-2-yl)-2-(morpholin-4-yl)-6-[(piperidin-4-ylmethyl)amino]-3,4-dihydropyrimidin-4-one; trifluoroacetic acid] | 330

same assay, conditions: 100 μM ATP; read-out: IRAK4 IC50

SMILES | IC50 [nM]
O=c1[nH]c(N2CCN(c3ccccc3Cl)CC2)nc(N[C@@H]2CCCNC2)c1-c1nc2ccccc2s1 [Example 151, (R)-5-(benzo[d]thiazol-2-yl)-2-(4-(2-chlorophenyl)piperazin-1-yl)-6-(piperidin-3-ylamino)pyrimidin-4(3H)-one] | 27
O=c1[nH]c(N2CCOCC2)nc(N[C@@H]2CCCNC2)c1-c1nc(-c2cccc(F)c2)cs1 [Example 204] | 40
COc1ccc(N2CC3CC2CN3c2nc(N[C@@H]3CCCNC3)c(-c3ccc4ccccc4n3)c(=O)[nH]2)cc1 (stereo partly drawn) [Example 195, 2-(5-(4-methoxyphenyl)-2,5-diazabicyclo[2.2.1]heptan-2-yl)-6-((R)-piperidin-3-ylamino)-5-(quinolin-2-yl)pyrimidin-4(3H)-one] | 757
O=c1[nH]c(N2CCN(c3ccccn3)CC2)nc(N[C@@H]2CCCNC2)c1-c1nc2ccccc2s1 [Example 132, (R)-5-(benzo[d]thiazol-2-yl)-6-(piperidin-3-ylamino)-2-(4-(pyridin-2-yl)piperazin-1-yl)pyrimidin-4(3H)-one] | 8
O=c1[nH]c(N2CC3CC3C2)nc(N[C@@H]2CCCNC2)c1-c1ccc2ccccc2n1 (stereo partly drawn) [Example 168, 2-(3-azabicyclo[3.1.0]hexan-3-yl)-6-((R)-piperidin-3-ylamino)-5-(quinolin-2-yl)pyrimidin-4(3H)-one] | 34
O=c1[nH]c(N2CCN(c3cnccn3)CC2)nc(N[C@@H]2CCCNC2)c1-c1nc2ccccc2s1 [Example 134, (R)-5-(benzo[d]thiazol-2-yl)-6-(piperidin-3-ylamino)-2-(4-(pyrazin-2-yl)piperazin-1-yl)pyrimidin-4(3H)-one] | 8
O=c1[nH]c(N2CCOCC2)nc(N[C@@H]2CCCNC2)c1-c1nc(-c2cccc(C(F)(F)F)c2)cs1 [Example 200] | 141
O=c1[nH]c(N2CC[C@H](F)C2)nc(N[C@@H]2CCCNC2)c1-c1ccc2ccccc2n1 [Example 177, 2-((S)-3-fluoropyrrolidin-1-yl)-6-((R)-piperidin-3-ylamino)-5-(quinolin-2-yl)pyrimidin-4(3H)-one] | 13
COc1ccc(OC)c(N2CCN(c3nc(N[C@@H]4CCCNC4)c(-c4nc5ccccc5s4)c(=O)[nH]3)CC2)c1 [Example 161, (R)-5-(benzo[d]thiazol-2-yl)-2-(4-(2,5-dimethoxyphenyl)piperazin-1-yl)-6-(piperidin-3-ylamino)pyrimidin-4(3H)-one] | 14
CS(=O)(=O)c1cc(F)ccc1N1CCN(c2nc(N[C@@H]3CCCNC3)c(-c3nc4ccccc4s3)c(=O)[nH]2)CC1 [Example 150, (R)-5-(benzo[d]thiazol-2-yl)-2-(4-(4-fluoro-2-(methylsulfonyl)phenyl)piperazin-1-yl)-6-(piperidin-3-ylamino)pyrimidin-4(3H)-one] | 14

same assay, conditions: unit inferred; 100 μM ATP; read-out: IRAK4 IC50

SMILES | IC50 [nM]
CN1CCC2(CCN(c3nc(N[C@@H]4C[C@H](CO)[C@@H](O)[C@H]4O)c(-c4nc5ccccc5s4)c(=O)[nH]3)CC2)C1=O [Example 66, 8-(5-(benzo[d]thiazol-2-yl)-4-((1R,2S,3R,4R)-2,3-dihydroxy-4-(hydroxymethyl)cyclopentylamino)-6-oxo-1,6-dihydropyrimidin-2-yl)-2-methyl-2,8-diazaspiro[4.5]decan-1-one] | 8.8
